Patent US20250134952A1, “METHODS FOR IMPROVING THE EFFICACY OF HDAC INHIBITOR THERAPY AND PREDICTING THE RESPONSE TO TREATMENT WITH HDAC INHIBITOR” (INSTITUT NATIONAL DE LA SANTÉ ET DE LA RECHERCHE MÉDICALE, priority 2021, published 2025)

Legend:
Assay type in all cases: cell-based, human
GADD45a = GADD45a expression by real-time PCR; conditions: 100 nM TSA, 24 h
Experimental: (§1) (A) Representative confocal sections of MCF7shctrl and shTau cells untreated or treated with 100 nM TSA for 24 h. […] (B) Quantification of HP1α clusters per nuclei visualized as described previously and realized on three independent experiments. (C) GADD45a and (D) p21 (CDKN1a) expression in MCF7shctrl and shTau cells untreated or treated with 100 nM TSA for 24 h were analyzed by real-time PCR and normalized to RPLO. Results are expressed, relative to the basal activity set to 1, as the mean±SD of three independent assays. (E) Tau tethering prevents adjacent reporter gene activity induced by TSA. GAL4UAS responsive luciferase reporter Hela stable cell line was transfected with GAL4DBD (GAL4) or GAL4DBD-Tau4R and then, 24 h later, treated with TSA (600 nM) for 24 h. The luciferase activity was determined as described in the Materials and Methods. (F) Ectopic Tau4R expression prevents adjacent reporter gene activity induced by TSA. […] The luciferase activity was determined as described in the Materials and Methods. […]
Total RNA was prepared using RNeasyMinikit (Qiagen). Reverse transcription (RT) was performed using random hexamers as recommended by the manufacturer (Applied Biosystems). cDNAs were analyzed by PCR amplification using the TaqMan PCR master mix (Applied Biosystems) and a mix of RPLO primers and probes. […]

[1] = system: HP1α clusters in MCF7shctrl and shTau cells; experiment: HP1α clusters per nucleus, confocal immunofluorescence; conditions: 100 nM TSA, 24 h
Experimental: as §1
MCF7shctrl, MCF7shTau or transfected Hela cells with Tau4R and GFP-HP1α were fixed in 4% paraformaldehyde for 30 min at room temperature. […] Slides were then analyzed with a Zeiss LSM710 confocal laser scanning microscope (60× magnification). Images were collected in the Z direction at 0.80 μm intervals and quantifications were realized using the Image J plug-in.

[2] = system: p21 promoter in MCF7shctrl or shTau cells; experiment: ChIP-qPCR of H3 acetylation and Tau occupancy on the p21 promoter; conditions: for acetylated H3 enrichment compared to IgG: p21 promoter (transcription start site region)
Excerpt: (A) Chromatin immunoprecipitations-qPCR analysis of H3 acetylation and Tau occupancy on the GAPDH promoter in MCF7shctrl cells in the indicated conditions. MCF7shctrl cells were subjected to cross-linking by 1% formaldehyde. Chromatin fragments were then immunoprecipitated using antibodies (Ab) against acetylated H3 (ac-H3) or Tau and analyzed by quantitative PCR for the presence of the GAPDH promoter. (B) Functional organization of the p21 promoter. (C) ChIP-qPCR analysis of H3 acetylation in MCF7shctrl or shTau cells or (D) Tau occupancy in MCF7shctrl cells on the p21 promoter. (E) ChIP-qPCR analysis of H3 acetylation or Tau occupancy on the stably transfected GAL4UAS responsive luciferase reporter transfected, or not, with Tau4R, then 24 h later treated with 100 nM TSA for 24 h. Cells were then subjected to cross-linking by 1% formaldehyde. Chromatin fragments were then immunoprecipitated using antibodies (Ab) against acetylated H3 or Tau and analyzed by quantitative PCR for the presence of the GAL4 UAS promoter. Quantification of enrichment is represented as fold-enrichment relative to IgG. Data are mean±SD **P<0.01***P<0.001
The ChIP protocol used was previously described (Lefebvre et al., 2006). Primers sequences for the pGL4.31[luc2P/GAL4 UAS/Hygro] promoter were: forward, 5′-[…]-3′ (SEQ ID N^o1), and reverse, 5′-[…]-3′ (SEQ ID N^o2); for p21 promoter: distal forward 5′-[…]-3′ (SEQ ID N^o3) and reverse 5′-[…]-3′ (SEQ ID N^o4); proximal forward 5′-[…]-3′ (SEQ ID N^o5) and reverse 5′-[…]-3′ (SEQ ID N^o6); p21 (transcription start site) TSS forward: 5′-[…]-3′ (SEQ ID N^o7) and reverse 5′-GCTCTCTCACCTCCTCTG3′ (SEQ ID N^o8); for GAPDH TSS: forward 5′-[…]-3′ (SEQ ID N^o9) and reverse 5′-[…]-3′ (SEQ ID N^o10). Antibodies used in the studies included the following: anti-acetylated H3 (Active motif, 39139) and anti-Tau1 (Millipore, MAB3420). All ChIP analyses were performed in at least two independent experiments.
To test this hypothesis, we next performed chromatin immunoprecipitations assays. Antibodies specific for acetylated H3 (ac-H3) and Tau were used to immunoprecipitate formaldehyde-cross-linked sonicated chromatin from short hairpin Tau knockdowns and control cells treated, or not, with 100 nM TSA. Quantitative PCR analysis of input or immunoprecipitated DNA using acetylated H3 and Tau antibodies was carried out to detect different promoter regions. As a control of non-TSA-inducible gene, we first used primers encompassing the transcription start site of the GAPDH promoter. No change in the level of acetylated H3, nor Tau binding, were detected after TSA treatment (FIG. 3A). […] In addition, Tau was detected at the level of these regions in MCF7shctrl cells (≈4-fold enrichment) in absence or presence of TSA treatment (FIG. 3D).

Structure (SMILES): CC(/C=C/C(=O)NO)=C\[C@@H](C)C(=O)c1ccc(N(C)C)cc1 [TSA, 2,4-Heptadienamide, 7-[4-(dimethylamino)phenyl]-N-hydroxy-4,6-dimethyl-7-oxo-, (2E,4E,6R)-]
- GADD45a induction (RT-qPCR) (GADD45a; MCF7shctrl cells, relative to basal): 3 fold
- GADD45a upregulation by TSA (GADD45a; cells with reduced Tau expression (MCF7shTau) vs MCF7shctrl): exacerbated
- HP1α clusters per nucleus ([1]; Tau knocked down MCF7 cells): 3 clusters
- HP1α clusters per nucleus ([1]; sh-control MCF7 cells): five
- acetylated H3 enrichment compared to non-treated cells ([2]; 100 nM TSA, MCF7shTau cells, p21 proximal and distal regions): ≈ 10 fold
- acetylated H3 enrichment compared to IgG ([2]; 100 nM TSA, shctrl cells): 70 fold
- Tau enrichment (occupancy) ([2]; MCF7shctrl cells, p21 proximal and distal regions, in absence or presence of TSA treatment): ≈ 4 fold
- acetylated H3 enrichment compared to IgG ([2]; shTau cells, irrespective of TSA treatment): ≈ 160 fold
